Source: patent US10485235B2, “Aryloxypyrimidinyl ethers as herbicides” (FMC Corporation, priority 2015, dated 2019)

The compounds below were run on barnyardgrass (Echinochloa crus-galli) (assay: Test B flooded paddy test, barnyardgrass). Details: 250 g ai/ha, Flood; visual rating after 13 to 15 days; scale 0 to 100, 0 is no effect, 100 is complete control.
Type: in vivo
Method in brief: (§1)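 2-leaf plants; flood to 3 cm, dose into water, hold depth; greenhouse 13–15 d; visual score 0–100 vs controls; dash = not tested.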
`N#Cc1cccc(Oc2ncc(Cl)cn2)c1OCC(=O)CCC(F)(F)F` [Compound 62] was tested, and the “Plant response rating, Barnyardgrass” value was 0.

Each compound was assayed on barnyardgrass (Echinochloa crus-galli) (assay: Test A preemergence, barnyardgrass). Details: Preemergence, 31 g ai/ha; 0 to 100 scale (0 no effect, 100 complete control).
Type: in vivo
Method in brief: (§2)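 Planted seeds in loam soil mixed with sand; sprayed soil directly (pre). Grew seedlings to one- to two-leaf stage, 2–10 cm; sprayed foliage (post). Held in greenhouse ~10 days. Rated injury visually vs untreated controls, 0–100.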
For `N#Cc1cccc(Oc2ncc(Cl)cn2)c1OCC(=O)CCC(F)(F)F` [Compound 62], the “Plant response rating, Barnyardgrass” value was 0.

Same assay, conditions: Preemergence, 125 g ai/ha; 0 to 100 scale (0 no effect, 100 complete control)
`N#Cc1cccc(Oc2ncc(Cl)cn2)c1OCC(=O)CCC(F)(F)F` [Compound 62] was tested, and the “Plant response rating, Barnyardgrass” value was 0.

These compounds were tested on foxtail, giant (giant foxtail, Setaria faberii) (assay: Test A postemergence, giant foxtail). Details: 31 g ai/ha, postemergence; 0 to 100 scale, 0 is no effect, 100 is complete control; approximately 10 days.
Type: in vivo
Method in brief: as §2
For `N#Cc1cccc(Oc2ncc(Cl)cn2)c1OCC(=O)CCC(F)(F)F` [Compound 62], the “Plant response rating, Foxtail, Giant” value was 0.

Same assay, conditions: 125 g ai/ha, postemergence; 0 to 100 scale, 0 is no effect, 100 is complete control; approximately 10 days
For `N#Cc1cccc(Oc2ncc(Cl)cn2)c1OCC(=O)CCC(F)(F)F` [Compound 62], the “Plant response rating, Foxtail, Giant” value was 0.

The compounds below were run on ryegrass, Italian (Italian ryegrass, Lolium multiflorum) (assay: Test A preemergence, Italian ryegrass). Details: Preemergence, 31 g ai/ha; 0 to 100 scale (0 no effect, 100 complete control).
Type: in vivo
Method in brief: as §2
`N#Cc1cccc(Oc2ncc(Cl)cn2)c1OCC(=O)CCC(F)(F)F` [Compound 62] was tested, and the “Plant response rating, Ryegrass, Italian” value was 0.

Same assay, conditions: Preemergence, 125 g ai/ha; 0 to 100 scale (0 no effect, 100 complete control)
In the case of `N#Cc1cccc(Oc2ncc(Cl)cn2)c1OCC(=O)CCC(F)(F)F` [Compound 62], the “Plant response rating, Ryegrass, Italian” value is reported as 0.

The compounds below were run on pigweed (Amaranthus retroflexus) (assay: Test A postemergence, pigweed). Details: 31 g ai/ha, postemergence; 0 to 100 scale, 0 is no effect, 100 is complete control; approximately 10 days.
Type: in vivo
Method in brief: as §2
In the case of `N#Cc1cccc(Oc2ncc(Cl)cn2)c1OCC(=O)CCC(F)(F)F` [Compound 62], the “Plant response rating, Pigweed” value is reported as 0.

Same assay, conditions: 125 g ai/ha, postemergence; 0 to 100 scale, 0 is no effect, 100 is complete control; approximately 10 days
For `N#Cc1cccc(Oc2ncc(Cl)cn2)c1OCC(=O)CCC(F)(F)F` [Compound 62], the “Plant response rating, Pigweed” value was 0.

These compounds were tested on ragweed (common ragweed, Ambrosia elatior) (assay: Test A preemergence, ragweed). Details: Preemergence, 31 g ai/ha; 0 to 100 scale (0 no effect, 100 complete control).
Type: in vivo
Method in brief: as §2
With `N#Cc1cccc(Oc2ncc(Cl)cn2)c1OCC(=O)CCC(F)(F)F` [Compound 62] the “Plant response rating, Ragweed” value was 0.

Same assay, conditions: Preemergence, 125 g ai/ha; 0 to 100 scale (0 no effect, 100 complete control)
For `N#Cc1cccc(Oc2ncc(Cl)cn2)c1OCC(=O)CCC(F)(F)F` [Compound 62], the “Plant response rating, Ragweed” value was 0.

Each compound was assayed on ryegrass, Italian (Italian ryegrass, Lolium multiflorum) (assay: Test A postemergence, Italian ryegrass). Details: 31 g ai/ha, postemergence; 0 to 100 scale, 0 is no effect, 100 is complete control; approximately 10 days.
Type: in vivo
Method in brief: as §2
In the case of `N#Cc1cccc(Oc2ncc(Cl)cn2)c1OCC(=O)CCC(F)(F)F` [Compound 62], the “Plant response rating, Ryegrass, Italian” value is reported as 0.

Same assay, conditions: 125 g ai/ha, postemergence; 0 to 100 scale, 0 is no effect, 100 is complete control; approximately 10 days
In the case of `N#Cc1cccc(Oc2ncc(Cl)cn2)c1OCC(=O)CCC(F)(F)F` [Compound 62], the “Plant response rating, Ryegrass, Italian” value is reported as 0.

The compounds below were run on blackgrass (Alopecurus myosuroides) (assay: Test A postemergence, blackgrass). Details: 31 g ai/ha, postemergence; 0 to 100 scale, 0 is no effect, 100 is complete control; approximately 10 days.
Type: in vivo
Method in brief: as §2
For `N#Cc1cccc(Oc2ncc(Cl)cn2)c1OCC(=O)CCC(F)(F)F` [Compound 62], the “Plant response rating, Blackgrass” value was 0.

Same assay, conditions: 125 g ai/ha, postemergence; 0 to 100 scale, 0 is no effect, 100 is complete control; approximately 10 days
For `N#Cc1cccc(Oc2ncc(Cl)cn2)c1OCC(=O)CCC(F)(F)F` [Compound 62], the “Plant response rating, Blackgrass” value was 0.

These compounds were tested on kochia (Kochia scoparia) (assay: Test A preemergence, kochia). Details: Preemergence, 31 g ai/ha; 0 to 100 scale (0 no effect, 100 complete control).
Type: in vivo
Method in brief: as §2
With `N#Cc1cccc(Oc2ncc(Cl)cn2)c1OCC(=O)CCC(F)(F)F` [Compound 62] the “Plant response rating, Kochia” value was 0.

Same assay, conditions: Preemergence, 125 g ai/ha; 0 to 100 scale (0 no effect, 100 complete control)
For `N#Cc1cccc(Oc2ncc(Cl)cn2)c1OCC(=O)CCC(F)(F)F` [Compound 62], the “Plant response rating, Kochia” value was 0.

Each compound was assayed on corn (Zea mays) (assay: Test A postemergence, corn). Details: 31 g ai/ha, postemergence; 0 to 100 scale, 0 is no effect, 100 is complete control; approximately 10 days.
Type: in vivo
Method in brief: as §2
`N#Cc1cccc(Oc2ncc(Cl)cn2)c1OCC(=O)CCC(F)(F)F` [Compound 62] was tested, and the “Plant response rating, Corn” value was 0.

Same assay, conditions: 125 g ai/ha, postemergence; 0 to 100 scale, 0 is no effect, 100 is complete control; approximately 10 days
With `N#Cc1cccc(Oc2ncc(Cl)cn2)c1OCC(=O)CCC(F)(F)F` [Compound 62] the “Plant response rating, Corn” value was 0.

What follows are compounds tested on sedge, umbrella (small-flower umbrella sedge, Cyperus difformis) (assay: Test B flooded paddy test, umbrella sedge). Details: 250 g ai/ha, Flood; visual rating after 13 to 15 days; scale 0 to 100, 0 is no effect, 100 is complete control.
Type: in vivo
Method in brief: as §1
With `N#Cc1cccc(Oc2ncc(Cl)cn2)c1OCC(=O)CCC(F)(F)F` [Compound 62] the “Plant response rating, Sedge, Umbrella” value was 0.

The compounds below were run on ducksalad (Heteranthera limosa) (assay: Test B flooded paddy test, ducksalad). Details: 250 g ai/ha, Flood; visual rating after 13 to 15 days; scale 0 to 100, 0 is no effect, 100 is complete control.
Type: in vivo
Method in brief: as §1
In the case of `N#Cc1cccc(Oc2ncc(Cl)cn2)c1OCC(=O)CCC(F)(F)F` [Compound 62], the “Plant response rating, Ducksalad” value is reported as 0.

The compounds below were run on ragweed (common ragweed, Ambrosia elatior) (assay: Test A postemergence, ragweed). Details: 31 g ai/ha, postemergence; 0 to 100 scale, 0 is no effect, 100 is complete control; approximately 10 days.
Type: in vivo
Method in brief: as §2
In the case of `N#Cc1cccc(Oc2ncc(Cl)cn2)c1OCC(=O)CCC(F)(F)F` [Compound 62], the “Plant response rating, Ragweed” value is reported as 0.

Same assay, conditions: 125 g ai/ha, postemergence; 0 to 100 scale, 0 is no effect, 100 is complete control; approximately 10 days
In the case of `N#Cc1cccc(Oc2ncc(Cl)cn2)c1OCC(=O)CCC(F)(F)F` [Compound 62], the “Plant response rating, Ragweed” value is reported as 0.

Each compound was assayed on galium (catchweed bedstraw, Galium aparine) (assay: Test A postemergence, galium). Details: 31 g ai/ha, postemergence; 0 to 100 scale, 0 is no effect, 100 is complete control; approximately 10 days.
Type: in vivo
Method in brief: as §2
With `N#Cc1cccc(Oc2ncc(Cl)cn2)c1OCC(=O)CCC(F)(F)F` [Compound 62] the “Plant response rating, Galium” value was 0.

Same assay, conditions: 125 g ai/ha, postemergence; 0 to 100 scale, 0 is no effect, 100 is complete control; approximately 10 days
With `N#Cc1cccc(Oc2ncc(Cl)cn2)c1OCC(=O)CCC(F)(F)F` [Compound 62] the “Plant response rating, Galium” value was 0.

These compounds were tested on rice (Oryza sativa) (assay: Test B flooded paddy test, rice). Details: 250 g ai/ha, Flood; visual rating after 13 to 15 days; scale 0 to 100, 0 is no effect, 100 is complete control.
Type: in vivo
Method in brief: as §1
`N#Cc1cccc(Oc2ncc(Cl)cn2)c1OCC(=O)CCC(F)(F)F` [Compound 62] was tested, and the “Plant response rating, Rice” value was 0.

The compounds below were run on kochia (Kochia scoparia) (assay: Test A postemergence, kochia). Details: 31 g ai/ha, postemergence; 0 to 100 scale, 0 is no effect, 100 is complete control; approximately 10 days.
Type: in vivo
Method in brief: as §2
`N#Cc1cccc(Oc2ncc(Cl)cn2)c1OCC(=O)CCC(F)(F)F` [Compound 62] was tested, and the “Plant response rating, Kochia” value was 0.

Same assay, conditions: 125 g ai/ha, postemergence; 0 to 100 scale, 0 is no effect, 100 is complete control; approximately 10 days
For `N#Cc1cccc(Oc2ncc(Cl)cn2)c1OCC(=O)CCC(F)(F)F` [Compound 62], the “Plant response rating, Kochia” value was 0.

What follows are compounds tested on foxtail, giant (giant foxtail, Setaria faberii) (assay: Test A preemergence, giant foxtail). Details: Preemergence, 31 g ai/ha; 0 to 100 scale (0 no effect, 100 complete control).
Type: in vivo
Method in brief: as §2
For `N#Cc1cccc(Oc2ncc(Cl)cn2)c1OCC(=O)CCC(F)(F)F` [Compound 62], the “Plant response rating, Foxtail, Giant” value was 0.

Same assay, conditions: Preemergence, 125 g ai/ha; 0 to 100 scale (0 no effect, 100 complete control)
With `N#Cc1cccc(Oc2ncc(Cl)cn2)c1OCC(=O)CCC(F)(F)F` [Compound 62] the “Plant response rating, Foxtail, Giant” value was 0.

The compounds below were run on pigweed (Amaranthus retroflexus) (assay: Test A preemergence, pigweed). Details: Preemergence, 31 g ai/ha; 0 to 100 scale (0 no effect, 100 complete control).
Type: in vivo
Method in brief: as §2
In the case of `N#Cc1cccc(Oc2ncc(Cl)cn2)c1OCC(=O)CCC(F)(F)F` [Compound 62], the “Plant response rating, Pigweed” value is reported as 0.

Same assay, conditions: Preemergence, 125 g ai/ha; 0 to 100 scale (0 no effect, 100 complete control)
With `N#Cc1cccc(Oc2ncc(Cl)cn2)c1OCC(=O)CCC(F)(F)F` [Compound 62] the “Plant response rating, Pigweed” value was 0.

Each compound was assayed on barnyardgrass (Echinochloa crus-galli) (assay: Test A postemergence, barnyardgrass). Details: 31 g ai/ha, postemergence; 0 to 100 scale, 0 is no effect, 100 is complete control; approximately 10 days.
Type: in vivo
Method in brief: as §2
In the case of `N#Cc1cccc(Oc2ncc(Cl)cn2)c1OCC(=O)CCC(F)(F)F` [Compound 62], the “Plant response rating, Barnyardgrass” value is reported as 0.

Same assay, conditions: 125 g ai/ha, postemergence; 0 to 100 scale, 0 is no effect, 100 is complete control; approximately 10 days
In the case of `N#Cc1cccc(Oc2ncc(Cl)cn2)c1OCC(=O)CCC(F)(F)F` [Compound 62], the “Plant response rating, Barnyardgrass” value is reported as 0.

Each compound was assayed on wheat (Triticum aestivum) (assay: Test A postemergence, wheat). Details: 31 g ai/ha, postemergence; 0 to 100 scale, 0 is no effect, 100 is complete control; approximately 10 days.
Type: in vivo
Method in brief: as §2
`N#Cc1cccc(Oc2ncc(Cl)cn2)c1OCC(=O)CCC(F)(F)F` [Compound 62] was tested, and the “Plant response rating, Wheat” value was 0.

Same assay, conditions: 125 g ai/ha, postemergence; 0 to 100 scale, 0 is no effect, 100 is complete control; approximately 10 days
For `N#Cc1cccc(Oc2ncc(Cl)cn2)c1OCC(=O)CCC(F)(F)F` [Compound 62], the “Plant response rating, Wheat” value was 0.
